Measurements published in patent US7718764B2, “Biologically active peptide [sequence] derivatives” (CMS Peptides Patent Holding Company Limited, priority 2004, dated 2010).

Key:
Heymann nephritis rats = test: Heymann nephritis in rats: 24 hr urine protein; format: in vivo, Wistar rats
Protocol: 20 healthy Wistar rats were randomized into two groups: peptide (200 μg/kg/day) and saline treatment (2 ml/day). Two ml of antigen were intraperitoneally injected to each rat, once every two weeks, for a total of 5 rounds of injection. Test substance administration by intraperitoneal injection was started on the day after the third immunization, once per day until the end of the experiment.
Quantification of uriner protein began at the third week of model establishment. A urine sample was collected from each rat over a 24 hour period once every […] the urine protein content quantified by the sulfosalicylic acid method.
Sample values were compared by t-test using SPSS software.

mice NK cell = test: Mice NK cell activity in vivo (i.p. dosing 20 days, spleen effector cells vs YAC-1 target cells, MTT); set-up: species or system BALB/c mice; settings: for NK cell activity (%): Table 8, saline 76.0 ± 4.3
Protocol: Animals were randomized into two peptide groups (200 μg/kg/day and 50 μg/kg/day), Cyclosporine A group (10 mg/kg/day), and saline group (0.5 ml/day). Each group contained 10 mice, in which half were female and half were male. All test substances were dissolved in 0.5 ml saline and administered intraperitoneally once per day for 20 days. T-lymphocyte transformation and NK cell activity were examined on the day immediately following the last injection. YAC-1 target cells were brought to log phase and adjusted to a density of 1×10^5/ml. Mice spleen cells prepared in section 2.2.2 above were adjusted to a density of 4×10^6/ml and used as effector cells. The cell suspensions were inoculated onto 96 wells cell culture plates as follows: Effector cell wells: 100 μl spleen cell suspension+100 μl RPMI-1640 Assay wells: 100 μl spleen cell suspension+100 μl YAC-1 cell suspension Target cell wells: 100 μl YAC-1 cell suspension+100 μl RPMI-1640 Three assay wells and three effector cell wells were set up for each animal, and 12 target cell wells were set up per cell culture plate. The plates were incubated at 37° C., 5% CO2 for 4 hours, then MTT was added and the plates were read at OD 570 nm referenced at 630 nm with ELISA reader. NK cell activity (%)=1−[(assay wells OD−effector cell wells OD)/target cell wells OD]×100%

mice T-lymphocyte = test: Mice T-lymphocyte transformation induced by ConA in vitro (spleen cells, MTT); format: cell-based, BALB/c mice; settings: for OD: Table 2, ConA 5 μg/ml, 68 hrs
Protocol: The spleens from healthy mice were isolated aseptically and manually dispersed in 10% FBS RPMI-1640 solution using an injection needle. The dispersed cell suspension was further sieved through a 100-gauge 150 μm diameter stainless steel sieve. The spleen cell suspension was adjusted to a density of 4×10^6/ml and was aliquoted onto 96-well cell culture plates at 100 μl/well. Peptides were dissolved in plain RPMI-1640. The design of the groupings was as given below.
Peptide group: 100 μl working peptide solution+75 μl spleen cell suspension+25 μl ConA working solution.
ConA control group: 100 μl RPMI-1640+75 μl spleen cell suspension+25 μl ConA working solution.
Negative control group: 125 μl RPMI-1640+75 μl spleen cell suspension.
The final concentration of ConA in the well was 5 μg/ml. The final concentrations of peptides in the well were 80 μg/ml, 16 μg/ml, 3.2 μg/ml, 0.64 μg/ml, and 0.128 μg/ml. Each peptide group contained three parallel wells, and eight or twelve wells for the control groups. The cells were incubated for 68 hrs at 37° C., 5% CO2. MTT method was used to obtain a reading of OD570 nm of each well referenced at 630 nm on an ELISA reader.

Masugi nephritis rabbits [1] = test: Masugi nephritis in rabbits: urine protein; format: in vivo; settings: for proteinuria Week 0: saline treatment 11.72 ± 3.18; for proteinuria Week 1: saline treatment 122 ± 91; for proteinuria Week 2: saline treatment 160 ± 138; for proteinuria Week 3: saline treatment 145 ± 33; for proteinuria Week 4: saline treatment 157 ± 71
Protocol: (§1) Twenty-two healthy rabbits were randomized into 5 groups: peptide (107.3 μg/kg/day and 58.5 μg/kg/day, 4 rabbits per group), dexamethasone (0.1 mg/kg/day, 4 rabbits), saline treatment (1 ml/day, 7 rabbits), and normal healthy (3 rabbits). Before the establishment of a disease state in the rabbits, measurements of serum BUN, creatinine, and urine protein over 24 hours were taken for each rabbit. If there was no abnormality in these measurements, the Masugi nephritis model was established in experimental rabbits by intravenous injection of sheep anti-rabbit renal cortex antiserum via the auricular vein, 0.5 ml per injection, one injection every 30 minutes, for a total of 4 injections per rabbit. The normal healthy (control) rabbit group was injected with saline in the same manner. Intravenous administration of the test substances via the auricular vein was started on the day after the injection of the antiserum, once per day, 1 ml per injection, for 30 consecutive days.
Urine was collected from each rabbit over a 24 hour period once per week and the protein content determined by the sulfosalicylic acid method.
(§2) Statistical significance was determined by the t-test of the SPSS software.

Masugi nephritis rabbits [2] = test: Masugi nephritis in rabbits: clearance of sheep anti-rabbit renal cortex IgG antibody (glomerular immunofluorescence); format: in vivo; settings: saline treatment 8.7 ± 0.9
Protocol: as §1, with “Before” for “Twenty-two healthy rabbits were randomized into 5 groups: peptide (107.3 μg/kg/day and 58.5 μg/kg/day, 4 rabbits per group), dexamethasone (0.1 mg/kg/day, 4 rabbits), saline treatment (1 ml/day, 7 rabbits), and normal healthy (3 rabbits). Before”
For observation of the effects of peptides on the clearance of sheep anti-rabbit renal cortex IgG antibody from Masugi nephritis rabbits, on the day after the last test substance administration, the rabbits were sacrificed by suffocation and the right kidney was extirpated, freeze-edged and then immunofluorescently stained for the presence of sheep IgG. The fluorescence-positive area of each glomerulus was counted. Thirty glomeruli per rabbit were examined and the average positive area per glomerulus was calculated.
as §2

PLNPK [CMS-010.26]
24 hr. urine protein concentration Week 3 (Heymann nephritis rats; 200 μg/kg/day i.p., Week 3, saline treatment 4.1 ± 1.3): 6.2 ± 2.3 mg/dL | 24 hr. urine protein concentration Week 5 (Heymann nephritis rats; 200 μg/kg/day i.p., Week 5, saline treatment 3.1 ± 0.8): 3.1 ± 1.4 mg/dL | 24 hr. urine protein concentration Week 7 (Heymann nephritis rats; 200 μg/kg/day i.p., Week 7, saline treatment 10.9 ± 2.8): 3.9 ± 1.6 mg/dL | 24 hr. urine protein concentration Week 9 (Heymann nephritis rats; 200 μg/kg/day i.p., Week 9, saline treatment 12.6 ± 1.2): 3.8 ± 2.2 mg/dL | Effect on severity of proteinuria in Heymann nephritis rats (Heymann nephritis rats; at suitable dosage, vs saline treatment P<0.05): decrease | NK cell activity (%) (mice NK cell; 50 μg/kg/day i.p. 20 days): 68.5 ± 7.2 % | NK cell activity (%) (mice NK cell; 200 μg/kg/day i.p. 20 days): 67.7 ± 5.3 % | Effect on mice NK cell activity in vivo (suppression) (mice NK cell; at suitable dosage, vs saline control P<0.05): suppress | OD (mice T-lymphocyte; peptide 0.128 μg/ml, ConA control 0.467 ± 0.043): 0.354 ± 0.017 | OD (mice T-lymphocyte; peptide 0.64 μg/ml, ConA control 0.467 ± 0.043): 0.348 ± 0.025 | OD (mice T-lymphocyte; peptide 3.2 μg/ml, ConA control 0.467 ± 0.043): 0.332 ± 0.015 | OD (mice T-lymphocyte; peptide 16 μg/ml, ConA control 0.467 ± 0.043): 0.356 ± 0.006 | OD (mice T-lymphocyte; peptide 80 μg/ml, MTT OD570 nm ref 630 nm, ConA control 0.467 ± 0.043, negative control 0.134 ± 0.011): 0.353 ± 0.016 | Effect on mice T-lymphocyte transformation induced by ConA in vitro (mice T-lymphocyte; at suitable concentrations, vs ConA positive control P<0.05): suppress | proteinuria Week 0 (Masugi nephritis rabbits [1]; 58.5 μg/kg/day i.v.): 9.53 ± 4.64 mg/dL | proteinuria Week 1 (Masugi nephritis rabbits [1]; 58.5 μg/kg/day i.v.): 77 ± 62 mg/dL | proteinuria Week 2 (Masugi nephritis rabbits [1]; 58.5 μg/kg/day i.v.): 150 ± 123 mg/dL | proteinuria Week 3 (Masugi nephritis rabbits [1]; 58.5 μg/kg/day i.v.): 20 ± 12 mg/dL | proteinuria Week 4 (Masugi nephritis rabbits [1]; 58.5 μg/kg/day i.v.): 36 ± 16 mg/dL | proteinuria Week 0 (Masugi nephritis rabbits [1]; 107.3 μg/kg/day i.v.): 9.84 ± 4.29 mg/dL | proteinuria Week 1 (Masugi nephritis rabbits [1]; 107.3 μg/kg/day i.v.): 187 ± 184 mg/dL | proteinuria Week 2 (Masugi nephritis rabbits [1]; 107.3 μg/kg/day i.v.): 114 ± 145 mg/dL | proteinuria Week 3 (Masugi nephritis rabbits [1]; 107.3 μg/kg/day i.v.): 26 ± 24 mg/dL | proteinuria Week 4 (Masugi nephritis rabbits [1]; 107.3 μg/kg/day i.v.): 28 ± 32 mg/dL | Effect on severity of proteinuria in Masugi nephritis rabbits (Masugi nephritis rabbits [1]; vs saline treatment control P<0.05): decrease | Positive area count/glomerulus (Masugi nephritis rabbits [2]; 58.5 μg/kg/day i.v. 30 days): 6.3 ± 1.4 | Positive area count/glomerulus (Masugi nephritis rabbits [2]; 107.3 μg/kg/day i.v. 30 days): 5.6 ± 1.2
